We go through 13 compounds from ChEMBL document CHEMBL1144730, “Novel antibacterial azetidine lincosamides” (Bioorg Med Chem Lett, 2008).

As usually defined, the MIC is the lowest concentration that inhibits growth of the organism. Lower therefore signals a more susceptible organism. A word on the ED50: it is the midpoint of the dose-response relation. High values mean weaker potency, low ones greater potency. Broadly, the IC50 is the concentration at which inhibition is half-maximal. A lower IC50 goes with greater potency in that assay.

Holding throughout (type): functional
The subject of experiment [1] is Streptococcus pneumoniae. In words: Antibacterial activity against Streptococcus pneumoniae by broth microdilution method. (In general: In broth dilution the organism is exposed to a series of concentrations in liquid medium.)
Experiment [2] deals with Staphylococcus aureus. In words: Antibacterial activity against macrolide, licosamide and streptogramin resistant Staphylococcus aureus by broth microdilution method.
Experiment [3] has as its system Staphylococcus aureus. Kind of experiment: Antibacterial activity against Staphylococcus aureus by broth microdilution method.
Experiment [4] concerns Enterococcus faecium. Kind of experiment: Antibacterial activity against Enterococcus faecium by broth microdilution method.
Experiment [5] relates to Enterococcus faecalis. In words: Antibacterial activity against Enterococcus faecalis by broth microdilution method.
In experiment [6] the test system is Staphylococcus aureus. Kind of experiment: Antibacterial activity against Staphylococcus aureus Smith infected iv dosed mouse septicemia model.
Experiment [7] relates to Bacteroides fragilis. In words: Antibacterial activity against Bacteroides fragilis by broth microdilution method.
The test system of experiment [8] is Escherichia coli. Kind of experiment: Inhibition of protein synthesis in Escherichia coli by transcription/translation inhibition assay.
Experiment [9] concerns Staphylococcus aureus. In words: Antibacterial activity against Staphylococcus aureus Smith infected po dosed mouse septicemia model.

In brackets after ≈: the same amount, converted by molar mass. Where only a bound is given, the exact number is not on record here.

`CS[C@H]1O[C@H]([C@H](NC(=O)[C@H]2NC[C@@H]2CCCC2CC2)[C@H](C)Cl)[C@H](O)[C@H](O)[C@H]1O`: the MIC is 0.06 µg/mL (≈ 0.137 µM) in experiment [1]; over 4 µg/mL in [2]; 0.125 µg/mL (≈ 0.286 µM) in experiment [3]; 0.125 µg/mL (≈ 0.286 µM) in [4]; 0.25 µg/mL (≈ 0.572 µM) in experiment [5]; 0.25 µg/mL (≈ 0.572 µM) in experiment [7]. This compound gave an ED50 in experiment [6] of 3.1 mg/kg. The IC50 in experiment [8] came out at 2.75 µM.

In the case of `CCCC[C@H]1CN[C@@H]1C(=O)N[C@@H]([C@H]1O[C@H](SC)[C@H](O)[C@@H](O)[C@H]1O)[C@H](C)Cl`, the MIC in experiment [1] is 0.06 µg/mL (≈ 0.146 µM); in experiment [2] it was over 8 µg/mL; in experiment [3], 0.125 µg/mL (≈ 0.304 µM); in experiment [4], 0.125 µg/mL (≈ 0.304 µM); in [5] it was 0.125 µg/mL (≈ 0.304 µM); in experiment [7], 0.125 µg/mL (≈ 0.304 µM). Further, the ED50 in experiment [9] was 10.8 mg/kg; in experiment [6] it was 1.1 mg/kg. In experiment [8], it took 0.36 µM to reach half-maximal inhibition (IC50).

Take `CCC[C@@H]1C[C@@H](C(=O)N[C@@H]([C@H]2O[C@H](SC)[C@H](O)[C@@H](O)[C@H]2O)[C@H](C)Cl)N(C)C1` [CLINDAMYCIN]: the MIC is 0.06 µg/mL (≈ 0.141 µM) in experiment [1]; over 8 µg/mL in [2]; 0.125 µg/mL (≈ 0.294 µM) in [3]; 0.125 µg/mL (≈ 0.294 µM) in experiment [4]; 0.25 µg/mL (≈ 0.588 µM) in experiment [5]. Further, the results for the ED50 in experiment [9] and in experiment [6] were 19.9 mg/kg and 2.8 mg/kg, respectively.

`CS[C@H]1O[C@H]([C@H](NC(=O)[C@H]2NC[C@@H]2CCC2CCC2)[C@H](C)Cl)[C@H](O)[C@H](O)[C@H]1O`: the MIC in [1] was 0.125 µg/mL (≈ 0.286 µM); in [2] it was over 4 µg/mL; in experiment [3] it was 0.25 µg/mL (≈ 0.572 µM); in [4], 0.25 µg/mL (≈ 0.572 µM); in [5], 0.25 µg/mL (≈ 0.572 µM); in experiment [7] it was 0.25 µg/mL (≈ 0.572 µM).

On to `CCCC[C@H]1CN(C)[C@@H]1C(=O)N[C@@H]([C@H]1O[C@H](SC)[C@H](O)[C@@H](O)[C@H]1O)[C@H](C)Cl`, for which the MIC is 0.5 µg/mL (≈ 1.18 µM) in experiment [1]; over 4 µg/mL in experiment [2]; 1 µg/mL (≈ 2.35 µM) in [3]; 1 µg/mL (≈ 2.35 µM) in [4]; 2 µg/mL (≈ 4.71 µM) in [5]; 0.125 µg/mL (≈ 0.294 µM) in experiment [7].

For `CS[C@H]1O[C@H]([C@H](NC(=O)[C@H]2NC[C@@H]2CCC2CC2)[C@H](C)Cl)[C@H](O)[C@H](O)[C@H]1O`, the MIC is 0.125 µg/mL (≈ 0.296 µM) in experiment [1]; over 4 µg/mL in [2]; 0.25 µg/mL (≈ 0.591 µM) in experiment [3]; 0.125 µg/mL (≈ 0.296 µM) in experiment [4]; 0.25 µg/mL (≈ 0.591 µM) in experiment [5]; 0.25 µg/mL (≈ 0.591 µM) in experiment [7]. The compound also had an ED50 in experiment [6] of 3 mg/kg. In addition, in experiment [8], the IC50 worked out at 7.8 µM.

As for `CCC[C@H]1CN[C@@H]1C(=O)N[C@@H]([C@H]1O[C@H](SC)[C@H](O)[C@@H](O)[C@H]1O)[C@H](C)Cl`, the MIC in experiment [1] was 0.125 µg/mL (≈ 0.315 µM); in experiment [2], over 8 µg/mL; in [3], 0.5 µg/mL (≈ 1.26 µM); in [4] it was 0.5 µg/mL (≈ 1.26 µM); in [5] it was 0.5 µg/mL (≈ 1.26 µM); in [7], 0.5 µg/mL (≈ 1.26 µM). The compound also showed an IC50 in [8] of 12.8 µM.

As for `CS[C@H]1O[C@H]([C@H](NC(=O)[C@H]2NC[C@@H]2CC2CC2)[C@H](C)Cl)[C@H](O)[C@H](O)[C@H]1O`, the MIC is 0.125 µg/mL (≈ 0.306 µM) in experiment [1]; over 8 µg/mL in [2]; 0.5 µg/mL (≈ 1.22 µM) in [3]; 0.5 µg/mL (≈ 1.22 µM) in experiment [4]; 1 µg/mL (≈ 2.45 µM) in experiment [5]; 0.5 µg/mL (≈ 1.22 µM) in experiment [7]. The IC50 in experiment [8] was determined as 11.1 µM.

Turning to `CS[C@H]1O[C@H]([C@H](NC(=O)[C@H]2NC[C@@H]2CCC(C)C)[C@H](C)Cl)[C@H](O)[C@H](O)[C@H]1O`, the MIC in experiment [1] was 0.125 µg/mL (≈ 0.294 µM); in experiment [2], over 8 µg/mL; in [3], 0.5 µg/mL (≈ 1.18 µM); in experiment [4] it was 0.5 µg/mL (≈ 1.18 µM); in experiment [5], 0.5 µg/mL (≈ 1.18 µM); in experiment [7], 0.5 µg/mL (≈ 1.18 µM). Further, 15.5 µM corresponded to half-maximal inhibition in [8] (IC50).

For `CS[C@H]1O[C@H]([C@H](NC(=O)[C@H]2NC[C@@H]2CCC(F)F)[C@H](C)Cl)[C@H](O)[C@H](O)[C@H]1O`, the MIC in experiment [1] was 0.125 µg/mL (≈ 0.289 µM); in experiment [2], over 4 µg/mL; in experiment [3] it was 1 µg/mL (≈ 2.31 µM); in experiment [4], 0.5 µg/mL (≈ 1.15 µM); in experiment [5] it was 2 µg/mL (≈ 4.62 µM); in experiment [7] it was 1 µg/mL (≈ 2.31 µM).

Take `CCCC[C@H]1CN(CCO)[C@@H]1C(=O)N[C@@H]([C@H]1O[C@H](SC)[C@H](O)[C@@H](O)[C@H]1O)[C@H](C)Cl`: the MIC was 0.125 µg/mL (≈ 0.275 µM) in experiment [1]; over 8 µg/mL in [2]; 0.5 µg/mL (≈ 1.1 µM) in [3]; 0.25 µg/mL (≈ 0.549 µM) in [4]; 0.5 µg/mL (≈ 1.1 µM) in experiment [5]; 0.5 µg/mL (≈ 1.1 µM) in [7].

On to `CS[C@H]1O[C@H]([C@H](NC(=O)[C@H]2NC[C@@H]2CCCC2CCC2)[C@H](C)Cl)[C@H](O)[C@H](O)[C@H]1O`, for which the MIC in experiment [1] was 0.016 µg/mL (≈ 0.0355 µM); in experiment [2] it was over 4 µg/mL; in [3], 0.03 µg/mL (≈ 0.0665 µM); in [4], 0.06 µg/mL (≈ 0.133 µM); in experiment [5] it was 0.06 µg/mL (≈ 0.133 µM); in [7] it was 0.25 µg/mL (≈ 0.554 µM). Besides, the ED50 in experiment [6] is over 10 mg/kg. In [8], inhibition was half-maximal at 2.44 µM (IC50).

For `CCCCC[C@H]1CN[C@@H]1C(=O)N[C@@H]([C@H]1O[C@H](SC)[C@H](O)[C@@H](O)[C@H]1O)[C@H](C)Cl`, the MIC in experiment [1] was 0.03 µg/mL (≈ 0.0706 µM); in experiment [2], over 8 µg/mL; in experiment [3], 0.06 µg/mL (≈ 0.141 µM); in experiment [4] it was 0.125 µg/mL (≈ 0.294 µM); in experiment [5], 0.25 µg/mL (≈ 0.588 µM); in experiment [7], 0.125 µg/mL (≈ 0.294 µM). Further, the ED50 was determined as 28 mg/kg in [9] and 1.7 mg/kg in [6]. The same compound gave an IC50 in experiment [8] of 1.13 µM.
